Experimental data from publication PMC10382351, “In vivo evaluation of a novel ^18F-labeled PET radioligand for translocator protein 18 kDa (TSPO) in monkey brain” (European Journal of Nuclear Medicine and Molecular Imaging, 2023).
Several values for one entry are separate records, joined by “and”; a condition that tells them apart may be missing. Equal entries are not always repeated.

Columns and labels:
[1] = Ex vivo radioanalysis of mouse brain and plasma 120 min after injection; format: in vivo, mice
Method: An ex vivo experiment was performed in another mouse 120 min after [^18F]SF51 injection. Anticoagulated blood was withdrawn from the myocardium, and the brain was extracted. The harvested brain was weighed and immediately underwent radioanalysis. The plasma was separated by centrifugation, and the radioactivity in both whole blood and plasma was measured as previously described.

[2] = tested on: 18 kDa translocator protein (TSPO); assay: PET imaging of [^18F]SF51 in rhesus monkey brain with kinetic analysis (2TCM, Logan plot, Lassen plot); format: in vivo; settings: for Estimated K1: three rhesus monkeys; for VT/fP using Logan plot: n=3
Method: Electrocardiogram, body temperature, heart rate, and respiratory rate measures were monitored throughout the scan.
Brain PET imaging was performed using a microPET Focus 220 camera (Siemens Medical Solution; Knoxville, TN). […] For baseline experiments, 20 mL of a vehicle containing 20% (2-hydroxypropyl)-β-cyclodextrin and two equivalents of HCl were injected intravenously 10 min before radioligand administration. For the blocked experiment, PK11195 was dissolved in vehicle and then injected intravenously (5 mg/kg) 10 min before radioligand injection for all three monkeys. One of the three monkeys underwent an additional blocked scan with 5 mg/kg of PBR28, performed using a MultiScan™ LFER 150 PET/CT (Mediso USA, LLC; Arlington, VA). The interval between baseline and blocked imaging sessions was at least three weeks in order to allow the monkey to recover from arterial blood sampling. Focus 220 PET images were histogrammed into 30 time frames (6 × 30, 3 × 60, 2 × 120, 4 × 300, and 15 × 600 s) and reconstructed using Fourier rebinning plus a two-dimensional filtered back-projection with scatter and attenuation correction. MultiScan LFER PET images were reconstructed with 3D-OSEM with two iterations and nine subsets and were corrected for scatter and attenuation.
PET images were co-registered to a standardized monkey MRI template using PMOD software (PMOD version 4.1, PMOD Technologies Ltd.; Zurich, Switzerland). Thirty-three predefined regions of interest (ROIs) from a monkey brain template were applied to the co-registered PET images to obtain regional time-activity curves (Supplementary Table S2). Brain uptake was expressed as standardized uptake value (SUV), which normalizes for injected radioactivity and body weight. Using the brain time-activity curves and the radiometabolite-corrected arterial input function, the total VT was derived from a two-tissue compartment model (2TCM). Receptor occupancy by PK11195 and nondisplaceable distribution volume (VND/fP) of [^18F]SF51 were determined by an axes-transformed Lassen plot, where the y-axis reports the difference in VT between the baseline and the blocked scans, corrected by the respective fp values, and the x-axis reports the values at baseline (VTbase/fPbase).

- Parent radioligand as share of radioactivity in plasma [1]: 9.1%
- Parent radioligand as share of radioactivity in the brain [1]: 96% and 96.4%
- VT/fP ([2]; Baseline, Amygdala, 2TCM, n = 3): 242 mL·cm^−3
- Estimated K1 ([2]; Baseline, Amygdala, 2TCM): 0.29 mL·cm^-3·min^-1
- VT/fP using Logan plot ([2]; Baseline, Amygdala): 229 mL·cm^-3
- VT/fP ([2]; Baseline, Amygdala, one monkey (PBR28 experiment)): 284 mL·cm^-3
- VT/fP ([2]; Baseline, Cerebellum, 2TCM, n = 3): 179 mL·cm^−3
- Estimated K1 ([2]; Baseline, Cerebellum, 2TCM): 0.34 mL·cm^-3·min^-1
- VT/fP using Logan plot ([2]; Baseline, Cerebellum): 172 mL·cm^-3
- VT/fP ([2]; Baseline, Cerebellum, one monkey (PBR28 experiment)): 208 mL·cm^-3
- VT/fP ([2]; Baseline, Cingulate Cortex, 2TCM, n = 3): 218 mL·cm^−3
- Estimated K1 ([2]; Baseline, Cingulate Cortex, 2TCM): 0.30 mL·cm^-3·min^-1
- VT/fP using Logan plot ([2]; Baseline, Cingulate Cortex): 208 mL·cm^-3
- VT/fP ([2]; Baseline, Cingulate Cortex, one monkey (PBR28 experiment)): 260 mL·cm^-3
- VT/fP ([2]; Baseline, Frontal Cortex, 2TCM, n = 3): 201 mL·cm^−3
- Estimated K1 ([2]; Baseline, Frontal Cortex, 2TCM): 0.30 mL·cm^-3·min^-1
- VT/fP using Logan plot ([2]; Baseline, Frontal Cortex): 192 mL·cm^-3
- VT/fP ([2]; Baseline, Frontal Cortex, one monkey (PBR28 experiment)): 241 mL·cm^-3
- VT/fP ([2]; Baseline, Hippocampus, 2TCM, n = 3): 220 mL·cm^−3
- Estimated K1 ([2]; Baseline, Hippocampus, 2TCM): 0.33 mL·cm^-3·min^-1
- VT/fP using Logan plot ([2]; Baseline, Hippocampus): 211 mL·cm^-3
- VT/fP ([2]; Baseline, Hippocampus, one monkey (PBR28 experiment)): 253 mL·cm^-3
- VT/fP ([2]; Baseline, Insula, 2TCM, n = 3): 224 mL·cm^−3
- Estimated K1 ([2]; Baseline, Insula, 2TCM): 0.35 mL·cm^-3·min^-1
- VT/fP using Logan plot ([2]; Baseline, Insula): 214 mL·cm^-3
- VT/fP ([2]; Baseline, Insula, one monkey (PBR28 experiment)): 264 mL·cm^-3
- VT/fP ([2]; Baseline, Occipital Cortex, 2TCM, n = 3): 183 mL·cm^−3
- Estimated K1 ([2]; Baseline, Occipital Cortex, 2TCM): 0.31 mL·cm^-3·min^-1
- VT/fP using Logan plot ([2]; Baseline, Occipital Cortex): 175 mL·cm^-3
- VT/fP ([2]; Baseline, Occipital Cortex, one monkey (PBR28 experiment)): 217 mL·cm^-3
- VT/fP ([2]; Baseline, Parietal Cortex, 2TCM, n = 3): 202 mL·cm^−3
- Estimated K1 ([2]; Baseline, Parietal Cortex, 2TCM): 0.30 mL·cm^-3·min^-1
- VT/fP using Logan plot ([2]; Baseline, Parietal Cortex): 193 mL·cm^-3
- VT/fP ([2]; Baseline, Parietal Cortex, one monkey (PBR28 experiment)): 246 mL·cm^-3
- VT/fP ([2]; Baseline, Striatum, 2TCM, n = 3): 225 mL·cm^−3
- Estimated K1 ([2]; Baseline, Striatum, 2TCM): 0.38 mL·cm^-3·min^-1
- VT/fP using Logan plot ([2]; Baseline, Striatum): 215 mL·cm^-3
- VT/fP ([2]; Baseline, Striatum, one monkey (PBR28 experiment)): 266 mL·cm^-3
- VT/fP ([2]; Baseline, Temporal Cortex, 2TCM, n = 3): 209 mL·cm^−3
- Estimated K1 ([2]; Baseline, Temporal Cortex, 2TCM): 0.30 mL·cm^-3·min^-1
- VT/fP using Logan plot ([2]; Baseline, Temporal Cortex): 201 mL·cm^-3
- VT/fP ([2]; Baseline, Temporal Cortex, one monkey (PBR28 experiment)): 241 mL·cm^-3
- VT/fP ([2]; Baseline, Thalamus, 2TCM, n = 3): 218 mL·cm^−3
- Estimated K1 ([2]; Baseline, Thalamus, 2TCM): 0.35 mL·cm^-3·min^-1
- VT/fP using Logan plot ([2]; Baseline, Thalamus): 208 mL·cm^-3
- VT/fP ([2]; Baseline, Thalamus, one monkey (PBR28 experiment)): 259 mL·cm^-3
- VT/fP ([2]; Baseline, Whole Brain, 2TCM, n = 3): 203 ± 15 mL·cm^−3 and 203 mL·cm^−3
- Estimated K1 ([2]; Baseline, Whole Brain, 2TCM): 0.31 mL·cm^-3·min^-1
- VT/fP using Logan plot ([2]; Baseline, Whole Brain): 194 mL·cm^-3
- VT/fP ([2]; Baseline, Whole Brain, one monkey (PBR28 experiment)): 240 mL·cm^-3
- VT/fP ([2]; Blocked (PK11195 5 mg/kg i.v.), Amygdala, 2TCM, n = 3): 23 mL·cm^−3
- VT/fP ([2]; Blocked (PK11195 5 mg/kg i.v.), Cerebellum, 2TCM, n = 3): 26 mL·cm^−3
- VT/fP ([2]; Blocked (PK11195 5 mg/kg i.v.), Cingulate Cortex, 2TCM, n = 3): 25 mL·cm^−3
- VT/fP ([2]; Blocked (PK11195 5 mg/kg i.v.), Frontal Cortex, 2TCM, n = 3): 26 mL·cm^−3
SMILES: CC[C@@H](C)N(C)C(=O)c1nc(-c2cccc([18F])c2)c2ccccc2n1 [[^18F]SF51]
